Measured values as given in ChEMBL document CHEMBL1122472, “Anticoccidial activity of 1-phenyluracils” (1983).

System: Eimeria tenella
Assay: Minimum effective concentration (MEC) against Eimeria tenella to prevent infection and to maintain zero lesion scores
Format: functional
Conditions: read-out: MEC

SMILES	minimal effective concentration
Cc1cc(-n2ccc(=O)[nH]c2=O)cc(Cl)c1S(=O)(=O)c1ccc(Cl)cc1	< 125 µg/mL
Cc1cc(C)cc(-n2ccc(=O)[nH]c2=O)c1	> 250 µg/mL
O=c1ccn(-c2ccc(Oc3ccc(Cl)cc3)c(Cl)c2)c(=O)[nH]1	> 500 µg/mL
Cc1cc(-n2ccc(=O)[nH]c2=O)cc(Cl)c1Sc1ccc(Cl)cc1	60 µg/mL
Cc1cc(-n2ccc(=O)[nH]c2=O)cc(C)c1Sc1ccc(Cl)cc1	500 µg/mL
O=c1ccn(-c2cc(Cl)cc(Cl)c2)c(=O)[nH]1	125 µg/mL
